Among the data in patent US5574013A (Warner-Lambert Company, priority 1993, dated 1996) are Ki values, retold here.

The assay concerns the target T1, CCK B (Mus musculus, UniProt P56481).
T1 construct: from tissue; host or cells: cerebral cortex membranes of male CFLP mice
T1 sequence (P56481 1-453): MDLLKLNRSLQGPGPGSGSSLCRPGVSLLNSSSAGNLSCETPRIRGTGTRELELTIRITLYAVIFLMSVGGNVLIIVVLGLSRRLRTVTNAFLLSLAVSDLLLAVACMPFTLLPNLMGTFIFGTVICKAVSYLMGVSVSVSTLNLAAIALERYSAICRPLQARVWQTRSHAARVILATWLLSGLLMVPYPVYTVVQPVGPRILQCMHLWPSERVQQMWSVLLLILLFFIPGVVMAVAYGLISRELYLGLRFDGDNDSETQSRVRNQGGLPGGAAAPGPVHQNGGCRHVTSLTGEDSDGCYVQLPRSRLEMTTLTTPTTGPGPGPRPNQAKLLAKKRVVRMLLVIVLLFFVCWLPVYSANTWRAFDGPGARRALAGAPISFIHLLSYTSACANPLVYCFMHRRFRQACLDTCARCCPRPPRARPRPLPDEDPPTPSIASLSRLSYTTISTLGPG
In words: CCK receptor binding screening test, displacement of tritiated-pentagastrin from mouse cerebral cortical membranes. The following applies: Ki by Cheng-Prusoff; 2 nM tritiated-pentagastrin; mouse cerebral cortex membranes; read-out: Binding Affinity CCK B. Here is the method:
The biological activity of compounds of the present invention was evaluated employing an initial screening test which rapidly and accurately measured the binding of the tested compound to known CCK receptor sites. […] (See Hays et al, Neuropeptides 1:53-62, 1980; and Satuer et al, Science 208:1155-1156, 1980.
In this screening test, the cerebral cortices taken from male CFLP mice weighing between 30-40 g were dissected on ice, weighed, and homogenized in 10 volumes of 50 mM Tris-HCl buffer (pH 7.4 at 0°-4° C.). The resulting suspension was centrifuged, the supernate was discarded, and the pellet was washed by resuspension in Tris-HCl buffer followed by recentrifugation. The final pellet was resuspended in 20 volumes of […] Hepes buffer (pH 7.2 at 23° C.) containing 130 mM NaCl, […] KCl, […] MgCl2, […] EDTA, 5 mg/mL bovine albumin, and bacitracin (0.25 mg/mL).
In saturation studies, cerebral cortical membranes were incubated at 23° C. for 120 minutes in a final volume of 500 μL of Hepes incubation buffer (pH 7.2) together with 0.2-20 nM tritiated-pentagastrin (Amersham International, England).
In the displacement experiments, membranes were incubated with a single concentration (2 nM) of ligand, together with increasing concentrations ([…]) of competitive test compound. In each case, the nonspecific binding was defined as that persisting in the presence of the unlabeled octapeptide CCK26-33 (10^-6 M).
Following incubation, radioactivity bound to membranes was separated from that free in solution by rapid filtration through Whatman GF/B filters and washed three times with 4 mL of ice cold Tris-HCl buffer. Filters from samples incubated with tritiated-pentagastrin were placed in polyethylene vials with 4 mL of scintillation cocktail, and the radioactivity was estimated by liquid scintillation spectrometry (efficiency 47-52%).
The specific binding to CCK receptor sites was defined as the total bound tritiated-pentagastrin minus the amount of tritiated-pentagastrin bound in the presence of 10^-6 octapeptide, CCK26-33.
Saturation curves for specific tritiated-pentagastrin binding to mouse cortical membranes were analyzed by the methods of Scatchard (Ann. New York Acad. Sci. 51:660-672, 1949, and Hill (J. Physiol. 40:IV-VIII, 1910, to provide estimates for the maximum number of binding sites (Bmax) and the equilibrium dissociation constant (Ka).
In displacement experiments, inhibition curves were analyzed by either logit-log plots or the iterative curve fitting computer program ALLFIT (DeLean, Munson and Redbard, 1978) to provide estimates of the IC50 and nH (apparent Hill coefficient) values). (IC50 values were defined as the concentration of test compound required to produce 50% inhibition of specific binding.)
The inhibition constant (Ki) of the test compound was then calculated according to the Cheng-Prusoff equation: [formula] where [L] is the concentration of radiolabel and Ka is the equilibrium dissociation constant.
The Ki values for several representative compounds of the present invention are present in Table I.
For `CSCC[C@H](NC(=O)[C@@](C)(Cc1c[nH]c2ccccc12)NC(=O)OC1C2CC3CC(C2)CC1C3)C(=O)O` (stereo partly drawn) [Example 11, N-[α-methyl-N-[(tricyclo[3.3.1.1^3,7]dec-2-yloxy)carbonyl]-D-tryptophyl]-L-methionine], the Ki was 0.024 µM.

For the compound `C[C@](Cc1c[nH]c2ccccc12)(NC(=O)OC1C2CC3CC(C2)CC1C3)C(=O)NCCC(=O)O` (stereo partly drawn) [Example 6, β-Alanine, N-[α-methyl-N-[(tricyclo[3.3.1.1^3,7]dec-2-yloxy)carbonyl]-D-tryptophyl]-], the Ki was found to be 4.38 µM.

Consider `COC(=O)CCCNC(=O)[C@@](C)(Cc1c[nH]c2ccccc12)NC(=O)OC1C2CC3CC(C2)CC1C3` (stereo partly drawn) [Example 1, Butanoic acid, 4-[[3-(1H-indol-3-yl)-2-methyl-1-oxo-2-[[(tricyclo[3.3.1.1^3,7]dec-2-yloxy)carbonyl]amino]propyl]amino]-, methyl ester (R)-], for which the Ki was 0.0821 µM.

Turning to `COC(=O)CCNC(=O)[C@H](CCSC)NC(=O)[C@@](C)(Cc1c[nH]c2ccccc12)NC(=O)OC1C2CC3CC(C2)CC1C3` (stereo partly drawn) [Example 12], the Ki was 0.03 µM.

On to `CCC(C)C(CO)NC(=O)C(C)(Cc1c[nH]c2ccccc12)NC(=O)OC1C2CC3CC(C2)CC1C3` (stereo not drawn) [Example 9, Carbamic acid, [2-[[1-(hydroxymethyl)-2-methylbutyl]amino]-1-(1H-indol-3-ylmethyl)-1-methyl-2-oxoethyl]-, tricyclo[3.3.1.1^3,7]dec-2-yl ester, [1S-[1R*(S*), 2R*]]-], for which the Ki worked out at 0.225 µM.

With `C[C@](Cc1c[nH]c2ccccc12)(NC(=O)OC1C2CC3CC(C2)CC1C3)C(=O)NCCC(=O)OCc1ccccc1` (stereo partly drawn) [Example 7, Propanoic acid, 3-[(3-(1H-indol-3-yl)-2-methyl-1-oxo-2-[[(tricyclo[3.3.1.1^3,7]dec-2-yloxy)carbonyl]amino]propyl]amino]--, phenylmethyl ester (R)-], the Ki was 0.299 µM.

As to `C[C@](Cc1c[nH]c2ccccc12)(NC(=O)OC1C2CC3CC(C2)CC1C3)C(=O)NCC(=O)O` (stereo partly drawn) [Example 4], the Ki was found to be 1.51 µM.

In the case of `C[C@](Cc1c[nH]c2ccccc12)(NC(=O)OC1C2CC3CC(C2)CC1C3)C(=O)NCC(=O)OCc1ccccc1` (stereo partly drawn) [Example 3, Gycine, N-[2-methyl-N-[(tricyclo[3.3.1.1^3,7]dec-2-yloxy)carbonyl]-D-tryptophyl]-, phenylmethyl ester], the Ki worked out at 0.0504 µM.

On to `CC(C)CC(CO)NC(=O)C(C)(Cc1c[nH]c2ccccc12)NC(=O)OC1C2CC3CC(C2)CC1C3` (stereo not drawn) [Example 8, Carbamic acid, [2-[[1-(hydroxymethyl)-3-methylbutyl]amino]-1-(1H-indol-3-ylmethyl)-1-methyl-2-oxoethyl]-, tricyclo[3.3.1.1^3,7]dec-2-yl ester, [R-(R*,S*)]-], for which the Ki is 0.292 µM.
